According to ChEMBL document CHEMBL2311440, “Inhibitors of HIV-1 attachment. Part 8: the effect of C7-heteroaryl substitution on the potency, and in vitro and in vivo profiles of indole-based inhibitors” (Bioorg Med Chem Lett, 2013):

Columns and labels:
[1] = Cytotoxicity against human HeLa CD4+ CCR5+ cells after 6 days by XTT assay; assay type: cell-based
[2] = test system: Human immunodeficiency virus 1; experiment: Antiviral activity against HIV1 JRFL pseudotyped virus infected in HeLa CD4+ CCR5+ cells by single-cycle viral infectivity assay; assay type: functional, organism-based; details: Human immunodeficiency virus 1, JRFL
[3] = Half life in human liver microsomes; assay type: ADME, Microsome
[4] = Antiviral activity against T-tropic HIV1 BRU virus by cell culture based assay; assay type: functional, Human immunodeficiency virus type 1 (BRU ISOLATE); details: Human immunodeficiency virus 1
[5] = test system: Human immunodeficiency virus 1; experiment: Antiviral activity against M-tropic HIV1 Bal virus by cell culture based assay; assay type: functional, organism-based; details: Human immunodeficiency virus 1, Bal
[6] = test system: Human immunodeficiency virus 1; experiment: Antiviral activity against T-tropic HIV1 NL4-3 virus by cell culture based assay; assay type: functional, organism-based; details: Human immunodeficiency virus 1, NL4-3
[7] = Permeability across human Caco2 cells at pH 6.5; assay type: ADME, cell-based; details: Caco-2, pH 6.5, read-out: permeability
[8] = Cmax in rat at 5 mg/kg, po; assay type: ADME, organism-based; set-up: dose 5 mg/kg, route oral; details: in vivo
[9] = Clearance in rat at 1 mg/kg, iv; assay type: ADME, organism-based; set-up: dose 1 mg/kg, route intravenous; details: in vivo
[10] = Oral bioavailability in rat at 5 mg/kg; assay type: ADME, organism-based; details: in vivo
[11] = Half life in rat at 1 mg/kg, iv; assay type: ADME, organism-based; set-up: dose 1 mg/kg, route intravenous; details: in vivo
[12] = Safety index, ratio fo CC50 for human HeLa CD4+ CCR5+ cells to EC50 for HIV1 JRFL; assay type: toxicity; details: read-out: Ratio CC50/EC50

Structure (SMILES)	CC50 at 144 h [1]	EC50 [2]	half-life [3]	Papp [7]	also measured
O=C(C(=O)N1CCN(C(=O)c2ccccc2)CC1)c1c[nH]c2cccc(F)c12	> 300000 nM	1.24 nM	> 100 min		EC50 [4]: 90 nM; EC50 [5]: 700 nM; EC50 [6]: 1500 nM
C[C@@H]1CN(C(=O)c2ccccc2)CCN1C(=O)C(=O)c1c[nH]c2c(-c3nn[nH]n3)ccc(F)c12	> 300000 nM	0.07 nM	> 100 min	< 1.5 ×10⁻⁶ cm/s	
C[C@@H]1CN(C(=O)c2ccccc2)CCN1C(=O)C(=O)c1c[nH]c2c(-c3ncon3)ccc(F)c12	125000 nM	0.04 nM			
COc1ccc(-c2ncon2)c2[nH]cc(C(=O)C(=O)N3CCN(C(=O)c4ccccc4)CC3)c12	22000 nM	0.16 nM	16 min	14.8 ×10⁻⁶ cm/s	
Cc1nnc(-c2ccc(F)c3c(C(=O)C(=O)N4CCN(C(=O)c5ccccc5)CC4)c[nH]c23)[nH]1	159000 nM	0.16 nM	25 min	8.9 ×10⁻⁶ cm/s	
NC(=O)c1nc(-c2ccc(F)c3c(C(=O)C(=O)N4CCN(C(=O)c5ccccc5)CC4)c[nH]c23)no1	154000 nM	0.1 nM			
CC(=O)Nc1nc(-c2ccc(F)c3c(C(=O)C(=O)N4CCN(C(=O)c5ccccc5)CC4)c[nH]c23)no1	229000 nM	0.1 nM			
CN(C)c1nc(-c2ccc(F)c3c(C(=O)C(=O)N4CCN(C(=O)c5ccccc5)CC4)c[nH]c23)no1	23000 nM	0.3 nM			
CNc1nc(-c2ccc(F)c3c(C(=O)C(=O)N4CCN(C(=O)c5ccccc5)CC4)c[nH]c23)no1	26000 nM	0.04 nM			
Nc1nc(-c2ccc(F)c3c(C(=O)C(=O)N4CCN(C(=O)c5ccccc5)CC4)c[nH]c23)no1	43000 nM	0.0082 nM	17 min	6.9 ×10⁻⁶ cm/s	
COc1nc(-c2ccc(F)c3c(C(=O)C(=O)N4CCN(C(=O)c5ccccc5)CC4)c[nH]c23)no1	44000 nM	3.55 nM			
Cc1noc(-c2ccc(F)c3c(C(=O)C(=O)N4CCN(C(=O)c5ccccc5)CC4)c[nH]c23)n1	> 300000 nM	0.094 nM			
Cc1nc(-c2ccc(F)c3c(C(=O)C(=O)N4CCN(C(=O)c5ccccc5)CC4)c[nH]c23)no1	226000 nM	0.06 nM			
O=C(C(=O)N1CCN(C(=O)c2ccccc2)CC1)c1c[nH]c2c(-c3nc4ccccc4[nH]3)ccc(F)c12	11000 nM	0.53 nM			
O=C(C(=O)N1CCN(C(=O)c2ccccc2)CC1)c1c[nH]c2c(-c3nc4ccccc4o3)ccc(F)c12	27000 nM	0.88 nM			
O=C(C(=O)N1CCN(C(=O)c2ccccc2)CC1)c1c[nH]c2c(-c3nn[nH]n3)ccc(F)c12	245000 nM	0.08 nM	> 200 min	1.7 ×10⁻⁶ cm/s	Cmax [8]: 95 ng/mL; EC50 [4]: 6.38 nM; clearance [9]: 3.1 mL/min/kg; bioavailability [10]: 2.3%; EC50 [5]: 0.37 nM; half-life [11]: 67 min; EC50 [6]: 9.41 nM
O=C(C(=O)N1CCN(C(=O)c2ccccc2)CC1)c1c[nH]c2c(-c3nnc[nH]3)ccc(F)c12	199000 nM	0.03 nM	32 min	1.9 ×10⁻⁶ cm/s	Cmax [8]: 369 ng/mL; clearance [9]: 3.7 mL/min/kg; bioavailability [10]: 14%; half-life [11]: 187 min
O=C(C(=O)N1CCN(C(=O)c2ccccc2)CC1)c1c[nH]c2c(-c3nnco3)ccc(F)c12	> 300000 nM	0.05 nM	10 min		
O=C(C(=O)N1CCN(C(=O)c2ccccc2)CC1)c1c[nH]c2c(-c3ncon3)ccc(F)c12	74000 nM	0.05 nM	17 min	> 30 ×10⁻⁶ cm/s	Cmax [8]: 2610 ng/mL; EC50 [4]: 3.38 nM; clearance [9]: 3.9 mL/min/kg; bioavailability [10]: 89%; selectivity ratio [12]: 1500; EC50 [5]: 7.61 nM; half-life [11]: 120 min; EC50 [6]: 8.66 nM
O=C(C(=O)N1CCN(C(=O)c2ccccc2)CC1)c1c[nH]c2c(-c3cnc[nH]3)ccc(F)c12	> 300000 nM	0.06 nM	16 min	3.7 ×10⁻⁶ cm/s	
O=C(C(=O)N1CCN(C(=O)c2ccccc2)CC1)c1c[nH]c2c(-c3cnco3)ccc(F)c12	> 300000 nM	0.0054 nM	2.9 min	12.2 ×10⁻⁶ cm/s	Cmax [8]: 444 ng/mL; clearance [9]: 17 mL/min/kg; bioavailability [10]: 47%; half-life [11]: 65 min
O=C(C(=O)N1CCN(C(=O)c2ccccc2)CC1)c1c[nH]c2c(-c3ncco3)ccc(F)c12	192000 nM	0.05 nM			
O=C(C(=O)N1CCN(C(=O)c2ccccc2)CC1)c1c[nH]c2c(-c3nccs3)ccc(F)c12	23000 nM	0.0067 nM			
O=C(C(=O)N1CCN(C(=O)c2ccccc2)CC1)c1c[nH]c2c(-c3ccsc3)ccc(F)c12	27000 nM	0.01 nM			
O=C(C(=O)N1CCN(C(=O)c2ccccc2)CC1)c1c[nH]c2c(-c3cccs3)ccc(F)c12	5300 nM	0.06 nM			
O=C(C(=O)N1CCN(C(=O)c2ccccc2)CC1)c1c[nH]c2c(-c3cccnc3)ccc(F)c12	10000 nM	0.06 nM			
O=C(C(=O)N1CCN(C(=O)c2ccccc2)CC1)c1c[nH]c2c(-c3ccccn3)ccc(F)c12	17000 nM	0.12 nM			
COc1ccc(-c2ccc(F)c3c(C(=O)C(=O)N4CCN(C(=O)c5ccccc5)CC4)c[nH]c23)cc1	21000 nM	0.04 nM			
O=C(C(=O)N1CCN(C(=O)c2ccccc2)CC1)c1c[nH]c2c(-c3ccccc3)ccc(F)c12	6800 nM	0.43 nM			
O=C(C(=O)N1CCN(C(=O)c2ccccc2)CC1)c1c[nH]c2ccccc12	275000 nM	153 nM			
